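Exposure lasted 48 hours, with cells grown in 96-well plates and compounds tested at five concentrations. GI50 is the concentration that inhibits growth by half. The concentration for full growth arrest is given as TGI.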
Tests used:
Test in all cases: NCI tumour cell line growth inhibition, 48 h
TK-10 renal = test system: TK-10 renal
HOP-62 NSCLC = test system: HOP-62 NSCLC
BT-549 breast = test system: BT-549 breast
HL-60(TB) leukemia = test system: HL-60(TB) leukemia
A549 NSCLC = test system: A549 NSCLC
DU-145 prostate = test system: DU-145 prostate
MDA-MB-435 = test system: MDA-MB-435
OVCAR-3 ovarian = test system: OVCAR-3 ovarian
OVCAR-4 ovarian = test system: OVCAR-4 ovarian
SF-268 CNS = test system: SF-268 CNS

| SMILES | TGI (TK-10 renal) | TGI (HOP-62 NSCLC) | TGI (BT-549 breast) | TGI (HL-60(TB) leukemia) | TGI (A549 NSCLC) | TGI (DU-145 prostate) | TGI (MDA-MB-435) | TGI (OVCAR-3 ovarian) | TGI (OVCAR-4 ovarian) | TGI (SF-268 CNS) | GI50 (HOP-62 NSCLC) | GI50 (A549 NSCLC) | GI50 (SF-268 CNS) | GI50 (BT-549 breast) | GI50 (HL-60(TB) leukemia) | GI50 (MDA-MB-435) | GI50 (OVCAR-4 ovarian) | GI50 (TK-10 renal) | GI50 (DU-145 prostate) | GI50 (OVCAR-3 ovarian) |
| --- | --- | --- | --- | --- | --- | --- | --- | --- | --- | --- | --- | --- | --- | --- | --- | --- | --- | --- | --- | --- |
| O=C1C=CC(=O)[C@H]2C3C=CC(C4C3C3(Cl)C(Cl)=C(Cl)[C@]4(Cl)C3(Cl)Cl)[C@@H]12 (some centres undefined) | 30.5 µM | 31.1 µM | 19.2 µM | 4.63 µM | 16 µM | 21.3 µM | 7.02 µM | 8.98 µM | 16.2 µM | 18.4 µM | – | – | – | – | – | – | – | – | – | – |
| O=C1c2c(F)c(F)c(F)c(F)c2SC2=Nc3cccc4cccc(c34)N12 | 26.1 µM | 27.2 µM | 23.9 µM | > 20 µM | 39.8 µM | 24.9 µM | 12.8 µM | 7.58 µM | 9 µM | 13.7 µM | – | – | – | – | – | – | – | – | – | – |
| CC1=C(C(=O)NCCCN(CCO)CCO)CC(C(=O)NCCCN(CCO)CCO)=C(C)N1 | > 100 µM | > 100 µM | > 100 µM | > 100 µM | > 100 µM | > 100 µM | > 100 µM | > 100 µM | > 100 µM | > 100 µM | – | – | – | – | – | – | – | – | – | – |
| N#CCN1CCCN(CC#N)CCN(CC#N)CCCN(CC#N)CC1 | > 100 µM | > 100 µM | > 100 µM | > 100 µM | > 100 µM | > 100 µM | > 100 µM | > 100 µM | > 100 µM | > 100 µM | – | – | – | – | – | – | – | – | – | – |
| O=c1cc(NNc2cccc(F)c2)[nH]c(=S)[nH]1 | > 100 µM | > 100 µM | > 100 µM | > 100 µM | > 100 µM | > 100 µM | > 100 µM | > 100 µM | > 100 µM | > 100 µM | – | – | – | – | – | – | – | – | – | – |
| COc1ccccc1[C@@H]1CCC2CC[C@@H](c3ccccc3OC)[N+]21Cc1ccccc1 (some centres undefined) | 20.3 µM | 13.3 µM | 7.63 µM | 4.88 µM | 13.1 µM | 13.7 µM | 10.5 µM | 10.7 µM | 16.1 µM | 17.4 µM | – | – | – | – | – | – | – | – | – | – |
| CN(C)C1(c2cc3ccccc3s2)CCCCC1 | > 100 µM | > 100 µM | > 100 µM | 0.0658 µM | > 100 µM | > 100 µM | > 100 µM | > 100 µM | > 100 µM | 52 µM | – | – | – | – | – | – | – | – | – | – |
| Nc1nc(N)c2nc(CNc3ccc(C(=O)NC(CCNC(=O)c4ccccc4C(=O)O)C(=O)O)cc3)cnc2n1 (centres undefined) | > 100 µM | > 100 µM | > 100 µM | > 100 µM | > 100 µM | > 100 µM | > 100 µM | > 100 µM | > 100 µM | > 100 µM | 0.0635 µM | 0.0688 µM | 0.169 µM | – | – | – | – | – | – | – |
| Cc1sc2nc3n(c(=O)c2c1C)N=C(c1ccccc1)CS3 | > 100 µM | > 100 µM | > 100 µM | > 100 µM | > 100 µM | > 100 µM | > 100 µM | > 100 µM | > 100 µM | > 100 µM | – | – | – | – | – | – | – | – | – | – |
| CCOP(=O)(OCC)C(C)(CC)/N=C(\N)NC#N (centres undefined) | > 100 µM | > 100 µM | > 100 µM | > 100 µM | > 100 µM | > 100 µM | > 100 µM | > 100 µM | > 100 µM | > 100 µM | – | – | – | – | – | – | – | – | – | – |
| COc1cc(/C=C/c2ccc(S(N)(=O)=O)cc2)cc(OC)c1 | 53.9 µM | 62.7 µM | 41.1 µM | 42.6 µM | 71.9 µM | 72.8 µM | 40 µM | 33.2 µM | 50.9 µM | > 100 µM | – | 20.7 µM | 28.3 µM | 10.7 µM | 18.6 µM | 18.7 µM | 21.2 µM | – | – | – |
| c1ccc(Sc2nc(Sc3ccccc3)nc(Sc3ccccc3)n2)cc1 | > 100 µM | > 100 µM | > 100 µM | > 100 µM | > 100 µM | 47.1 µM | > 100 µM | 34.5 µM | > 100 µM | > 100 µM | – | – | – | – | – | – | – | – | – | – |
| COC1=CC(c2ccc[nH]2)=N/C1=C\c1[nH]c(C)c(C)c1CCC(=O)OCc1ccccc1 | 3.09 µM | 1.84 µM | 2.9 µM | 3.46 µM | 11.1 µM | 6.82 µM | 1.64 µM | 1.35 µM | 4.43 µM | 2.92 µM | 0.355 µM | 0.602 µM | 0.369 µM | 0.378 µM | 0.799 µM | 0.44 µM | 0.246 µM | 0.39 µM | 0.446 µM | 0.304 µM |
| Cc1ccc(O)cc1 (tested in a mixture with another compound) | > 100 µM | > 100 µM | > 100 µM | > 100 µM | > 100 µM | > 100 µM | > 100 µM | > 100 µM | > 100 µM | > 100 µM | – | – | – | – | – | – | – | – | – | – |
| COC(=O)CN(CC1O[C@@H]2OC(C)(C)O[C@@H]2C1NC(C)=O)C(=O)OCc1ccccc1 (some centres undefined) | > 100 µM | > 100 µM | > 100 µM | > 100 µM | > 100 µM | > 100 µM | > 100 µM | > 100 µM | > 100 µM | > 100 µM | – | – | – | – | – | – | – | – | – | – |
| CCOC(=O)C(NC(=O)c1ccccc1)(Nc1ccc(S(=O)(=O)Nc2ccc(OC)nn2)cc1)C(F)(F)F (centres undefined) | > 100 µM | > 100 µM | > 100 µM | > 100 µM | > 100 µM | > 100 µM | > 100 µM | > 100 µM | > 100 µM | > 100 µM | – | – | – | – | – | – | – | – | – | – |
| CCOC(=O)CCC(C(=O)OCC)n1nnc2ccc(Nc3c(C)[n+]([O-])c4cc(F)c(OCC)cc4[n+]3[O-])cc21 (centres undefined) | > 100 µM | > 100 µM | > 100 µM | > 100 µM | > 100 µM | > 100 µM | > 100 µM | 67.4 µM | > 100 µM | > 100 µM | – | – | – | – | – | – | – | – | – | – |
| CC1(C)OC2[C@@H](CO[C@@]3([C@H]4OC(C)(C)O[C@@H]4CO)OC(C)(C)O[C@@H]23)O1 (some centres undefined) | > 100 µM | > 100 µM | > 100 µM | > 100 µM | > 100 µM | > 100 µM | > 100 µM | > 100 µM | > 100 µM | > 100 µM | – | – | – | – | – | – | – | – | – | – |
| O=C1c2ccccc2C(=O)c2c(NCC3CO3)cccc21 (centres undefined) | > 100 µM | > 100 µM | 66.8 µM | 15.8 µM | > 100 µM | > 34.3 µM | 20 µM | > 45.8 µM | > 100 µM | 17.9 µM | – | – | – | – | – | – | – | – | – | – |
| COc1cc2nc3n(c(=O)c2cc1OC)CCCCC3 | > 100 µM | > 100 µM | > 100 µM | > 100 µM | > 100 µM | > 100 µM | > 100 µM | > 100 µM | > 100 µM | > 100 µM | – | – | – | – | – | – | – | – | – | – |
| O=C(NCCCc1cn[nH]c(=O)n1)c1cccc2nc3ccccc3nc12 | > 100 µM | > 100 µM | > 100 µM | > 100 µM | > 100 µM | > 100 µM | > 100 µM | > 100 µM | > 100 µM | > 100 µM | – | – | – | – | – | – | – | – | – | – |
| CCOC(=O)[C@@]12NN=N[C@@H]1[C@H]1CO[C@H](c3ccccc3)N1C2=O | 30.5 µM | 30.6 µM | 25.9 µM | > 100 µM | > 100 µM | 34.3 µM | 35.6 µM | 24.5 µM | 32.4 µM | 30.8 µM | – | – | – | – | – | – | – | – | – | – |
| CCc1n[nH]c(=O)n1N=C(c1ccccc1)c1ccccc1 | > 100 µM | > 100 µM | > 100 µM | > 100 µM | > 100 µM | > 100 µM | > 100 µM | > 100 µM | > 100 µM | > 100 µM | – | – | – | – | – | – | – | – | – | – |
| CCOC(=O)c1cc([N+](=O)[O-])cc([N+](=O)[O-])c1Sc1ncnc2nc[nH]c12 | 9.55 µM | 24.5 µM | 8.59 µM | 4.33 µM | 32.5 µM | 5.42 µM | 4.27 µM | 2.45 µM | 2.41 µM | 16 µM | – | – | – | – | – | – | – | – | – | – |
| C=CC(=C)CCC(Br)C(C)(C)Cl (centres undefined) | > 100 µM | > 100 µM | > 100 µM | > 100 µM | > 100 µM | > 100 µM | > 100 µM | > 100 µM | > 100 µM | > 100 µM | – | – | – | – | – | – | – | – | – | – |

— PubChem BioAssay (NCI)
